Test results reported in US9643951B2, “Compound having somatostatin receptor agonistic activity and pharmaceutical use thereof” (ONO PHARMACEUTICAL CO., LTD., priority 2013, dated 2017).
pEC50: −log10 of the molar value.

How the values were obtained:
human SSTR2 = target: T1, human SSTR2 (Homo sapiens, UniProt P30874); assay: Evaluation of SSTR2 agonistic activity using cells expressing human SSTR2 (suppression of forskolin-stimulated cAMP production, SSTR2-CHO-K1); assay type: cell-based
T1 construct: Myc; expressed in transfected cells
T1 sequence (P30874 whole entry): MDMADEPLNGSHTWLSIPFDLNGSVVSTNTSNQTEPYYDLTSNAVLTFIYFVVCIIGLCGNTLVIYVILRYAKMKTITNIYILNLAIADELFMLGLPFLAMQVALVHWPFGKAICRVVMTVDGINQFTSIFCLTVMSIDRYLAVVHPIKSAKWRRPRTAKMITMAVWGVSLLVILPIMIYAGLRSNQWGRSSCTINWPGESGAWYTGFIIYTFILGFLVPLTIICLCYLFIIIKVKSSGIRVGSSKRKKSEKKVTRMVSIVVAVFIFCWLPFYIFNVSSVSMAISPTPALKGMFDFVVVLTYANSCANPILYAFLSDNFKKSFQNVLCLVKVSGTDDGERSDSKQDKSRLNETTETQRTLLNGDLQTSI
Protocol: Evaluation of SSTR2 Agonistic Activity Using Cells Expressing Human SSTR2
(1) Isolation of Human SSTR2 Gene
Human brain cDNA was purchased from Ambion (catalogue No.: 7962; Lot No.: 040200121). PCR primers, hSSTR2_F1_XhoI: 5′-[…]-3′ (SEQ ID NO: 1) and hSSTR2_R1_EcoRI: 5′-[…]-3′ (SEQ ID NO: 2) were designed on the basis of the sequence GenBank NM_001050.
PCR reaction (95° C. for 2 min.→[98° C. for 10 sec., 60° C. for 30 sec. and 68° C. for 90 sec.]×30 cycles) was carried out using the human brain cDNA as a template and using KOD-plus-(TOYOBO Co., Ltd.). The amplified PCR product was subjected to 1% agarose gel electrophoresis, purified using QIAquick Gel Extraction Kit (QIAGEN) and digested with restriction enzymes XhoI and EcoRI. The digested fragments were ligated to an expression vector (pIRESneo-Myc) using the DNA Ligation Kit Ver. 2 (Takara) and used for transformation of E. coli DH5a. The plasmid pIRESneo-Myc/hSSTR2 was prepared and the DNA sequence thereof was confirmed.
(2) Culture of CHO-K1 Cells
CHO-K1 (−) was cultured in Ham's F-12 medium (containing foetal bovine serum (10%), penicillin (100 U/mL) and streptomycin (0.1 mg/mL)). The transduced cells were cultured in the same medium supplemented with Geneticin (1 mg/mL).
(3) Transduction of CHO-K1 Cells
CHO-K1(−) cells were transduced with the plasmid pIRESneo-Myc/hSSTR2 using Lipofectamine 2000 (Invitrogen). After 48 hours, selection was carried out by replacing the medium with the one containing 1 mg/mL of Geneticin to establish a stable overexpressing cell line (SSTR2-CHO-K1).
(4) Evaluation of SSTR2 Agonistic Activity
The human SSTR2 agonistic activity of a test compound was evaluated according to the following procedures by using a suppression activity of intracellular cyclic AMP (cAMP) production by forskolin stimulation as an index. SSTR2-CHO-K1 cells suspended in Ham's F-12 medium (containing foetal bovine serum (10%), penicillin (100 U/mL) and streptomycin (0.1 mg/mL)) supplemented with 0.25 mg/mL of Geneticin were inoculated into a 96-well plate at a density of 4.0×10^4 cells/0.1 mL per well. On the next day, the medium was removed and washed twice with 0.1 mL of wash buffer [0.1% bovine serum albumin (BSA), 20 mmol/L 4-(2-hydroxyethyl)-1-piperazineethane sulphonic acid (HEPES)-containing Hank's balanced salt solution (HBSS)]. An assay buffer [[…] 3-isobutyl-1-methylxanthine (IBMX), 0.1% BSA, 20 mmol/L HEPES-containing HBSS] was added to the wells at 0.06 mL per well and the plate was incubated for 15 minutes under the conditions of 5% carbon dioxide and 37° C. Thereafter, an assay buffer containing a test compound at a concentration twice as high as the final concentration and 0.02 mmol/L of forskolin was added to wells at 0.06 mL per well and the plate was incubated for 30 minutes under the conditions of 5% carbon dioxide and 37° C. Thereafter, the Assay/Lysis buffer included in the cAMP-Screen® kit (available from Applied Biosystems) was added to wells at 0.12 mL per well and the plate was incubated for 30 minutes under the conditions of 5% carbon dioxide and 37° C. The concentration of cAMP in samples were measured by ELISA according to the instruction of the kit.

[1] = Human hepatic microsome stability test; assay type: in vitro ADME; conditions: human hepatic microsomes 1 mg/mL; 60 minutes; test compound 0.001 mmol/L; 37° C.
Protocol: Human Hepatic Microsome Stability Test
To a reaction vessel heated to 37° C. in a water bath, 0.392 mL of phosphate buffer (0.1 mol/L, pH 7.4) containing human hepatic microsomes (1 mg/mL, Xenotech) and NADPH-Co-factor (NADP+1.3 mmol/L, BD-Bioscience) was added and pre-incubated for 5 minutes. A 50% acetonitrile solution (0.008 mL) containing 0.05 mmol/L of a test compound was added thereto to initiate the enzyme reaction (final concentration of the test compound: 0.001 mmol/L). Immediately after initiation of the reaction and at 60 minutes thereafter, 0.050 mL of the reaction solution was respectively collected, which was immediately added to an acetonitrile solution (0.2 mL) containing an internal standard (45 nmol/L, 1-[3-(3,5-dimethylphenyl)-4-quinolinyl]-4-piperidineamine) to terminate the enzyme reaction.
The residual rate (%), which is indicative of stability of the test compound, was calculated using the ratio of peak areas between the test compound and the internal substance determined by LC/MS/MS (TSQ Quantum Discovery MAX, Thermo) analysis of the sample thus prepared by the above procedures followed by filtration, and the equation: {[residual rate (%)=[peak area of a test compound in a sample at 60 minutes after initiation of the reaction/peak area of the internal standard]/[peak area of the test compound in the sample immediately after initiation of the reaction/peak area of the internal standard]×100}.

[2] = Evaluation of cytotoxicity using cultured human hepatocytes (intracellular ATP); assay type: cell-based; conditions: read-out: IC50 of cytotoxicity (concentration at which 50% of the luminescence is suppressed)
Protocol: Evaluation of Cytotoxicity Using Cultured Human Hepatocytes
Frozen adhesive human hepatocytes were thawed, suspended in a hepatocellular medium (HCM) purchased from Lonza and inoculated to a 96-well plate coated with collagen. The culture medium of the hepatocytes cultured overnight in an incubator (5% carbon dioxide, 95% air, 37° C.) was exchanged to the medium containing a test compound at a concentration of 0, 12.5, 25, 50, 100, 200 or 400 (×10^−6 mol/L) and the cells were further cultured for 24 hours. Cytotoxicity was evaluated by measuring the intracellular ATP concentration. Specifically, using the Promega Celltiter-Glo luminescent assay kit available from Promega, cells were lysed in the assay buffer included in the kit and the concentration of ATP released from the cells was measured according to the luminescence resulting from luciferin-luciferase enzyme activity. The luminescence was measured on the SpectraMax plate reader from Molecular Devices. The extent of cytotoxicity of a test compound is represented by the concentration (IC50) of the compound at which 50% of the luminescence is suppressed.

[3] = test system: growth hormone (GH) secretion; assay: Evaluation of suppression of growth hormone (GH) secretion using rats (GHRH-induced); assay type: in vivo; conditions: Rattus norvegicus, Procedure (B): oral administration 8 hours beforehand, read-out: percentage of suppression of GH secretion
Protocol: Evaluation of Suppression of Growth Hormone (GH) Secretion Using Rats
[Procedure (A): Administration of a Test Compound 30 Minutes Beforehand]
A medium (distilled water (Otsuka distilled water, Otsuka Pharmaceutical Factory, […]) IGS rats (Charles River Laboratories Japan, Inc.)) and after 27 minutes, the animals were administered with 50 mg/kg of pentobarbital sodium (Somnopentyl, Kyoritsu Seiyaku Corporation) via the tail vein for anaesthesia. Three minutes after administration of pentobarbital sodium, the rats were administered with 0.01 mg/kg of growth hormone-releasing hormone (GHRH, Bachem) via the tail vein to induce GH secretion. In order to measure the blood GH concentration, 0.2 mL of blood was collected through the jugular vein at 5 minutes after administration of GHRH. The collected blood was centrifuged at 4° C., 13,000×g for 5 minutes to obtain plasma. The blood GH concentration was measured by using Rat/Mouse Growth Hormone ELISA (Millipore) following the instruction of the kit. The percentage (%) of suppression of GH secretion was determined by using the obtained blood GH concentration and the equation {[suppression (%) of GH secretion]=([blood GH concentration of the group administered with the medium]−[blood GH concentration of the group administered with a test compound])/[blood GH concentration of the group administered with the medium]×100}. In the equation, the group administered with the medium represents the group of animals administered with the medium and the group administered with a test compound represents the group of animals administered with a test compound dissolved in the medium.
[Procedure (B): Administration of a Test Compound 8 Hours Beforehand]
A medium (distilled water (Otsuka distilled water, Otsuka Pharmaceutical Factory, […]) IGS rats (Charles River Laboratories Japan, Inc.)) and after 7 hours and 57 minutes, the animals were administered with 50 mg/kg of pentobarbital sodium (Somnopentyl, Kyoritsu Seiyaku Corporation) via the tail vein for anaesthesia. Three minutes after administration of pentobarbital sodium, the rats were administered with 0.01 mg/kg of growth hormone-releasing hormone (GHRH, Bachem) via the tail vein to induce GH secretion. The rest of the procedure is the same as in [Procedure (A)] described above.

Row | Compound | pEC50 (human SSTR2) | residual rate [1] [%] | IC50 at 24 h [2] [nM] | inhibition in vivo at 1 mg/kg [3] [%] | inhibition in vivo at 3 mg/kg ([3]; 3 mg/kg) [%] | inhibition in vivo at 10 mg/kg ([3]; 10 mg/kg) [%]
1 | CCNC1CCN(c2c(-c3ccc(C(C)(C)C#N)cc3)cncc2-c2cc(Cl)cc(Cl)c2)CC1 [Example 5(4), 2-(4-{5-(3,5-dichlorophenyl)-4-[4-(ethylamino)-1-piperidinyl]-3-pyridinyl}phenyl)-2-methylpropanenitrile] | 10.68 | 74.9 | 17000 | 89 |  | 
2 | N#Cc1cccc(/C=C/c2cncc(-c3cc(Cl)cc(Cl)c3)c2N2CCC(N)CC2)c1 [Example 4(1), 3-{(E)-2-[4-(4-amino-1-piperidinyl)-5-(3,5-dichlorophenyl)-3-pyridinyl]vinyl}benzonitrile] | 10.42 | 49.9 |  | 84 |  | 
3 | COc1ccc(F)cc1C(=O)Nc1cncc(-c2cc(Cl)cc(Cl)c2)c1N1CCC(N)CC1 [Example 7(1), N-[4-(4-amino-1-piperidinyl)-5-(3,5-dichlorophenyl)-3-pyridinyl]-5-fluoro-2-methoxybenzamide] | 9.59 | 92.9 | 34000 |  | 88 | 
4 | NC1CCN(c2c(NC(=O)c3cccc(Cl)c3)cncc2-c2cc(F)cc(Cl)c2)CC1 [Example 7, N-[4-(4-amino-1-piperidinyl)-5-(3-chloro-5-fluorophenyl)-3-pyridinyl]-3-chlorobenzamide] | 9.47 | 100.0 | 74000 |  |  | 93
5 | N#CC1(c2ccc(-c3cncc(-c4cc(Cl)cc(Cl)c4)c3N3CCC(N)CC3)cc2)CC1 [Example 2(2), 1-{4-[4-(4-amino-1-piperidinyl)-5-(3,5-dichlorophenyl)-3-pyridinyl]phenyl}cyclopropanecarbonitrile] | 10.89 | 100.0 | 11000 | 93 |  | 
6 | CCNC1CCN(c2c(-c3ccc(OC(F)F)cc3)cncc2-c2cc(Cl)cc(Cl)c2)CC1 [Example 5(3), 1-{3-(3,5-dichlorophenyl)-5-[4-(difluoromethoxy)phenyl]-4-pyridinyl}-N-ethyl-4-piperidineamine] | 10.55 | 67.7 | 10000 | 96 |  | 
7 | CO[C@@H]1CN(c2c(-c3ccc(C(F)(F)F)cc3)cncc2-c2cc(Cl)cc(Cl)c2)CC[C@@H]1N (racemic) [Example 2(7), rac-(3R,4S)-1-{3-(3,5-dichlorophenyl)-5-[4-(trifluoromethyl)phenyl]-4-pyridinyl}-3-methoxy-4-piperidineamine] | 9.77 |  |  |  |  | 
8 | CCNC1CCN(c2c(/C=C/c3cccc(C#N)c3)cncc2-c2cc(Cl)cc(Cl)c2)CC1 [Example 5(6), 3-[(E)-2-{5-(3,5-dichlorophenyl)-4-[4-(ethylamino)-1-piperidinyl]-3-pyridinyl}vinyl]benzonitrile] | 10.32 | 83.9 | 18000 | 89 |  | 
9 | Cc1cc(C)cc(-c2cncc(-c3nc4c(C)cc(C)cc4[nH]3)c2N2CCC(N)CC2)c1 [formula (P), reference compound] |  | 1.2 |  |  |  | 
10 | NC1CCN(c2c(-c3ccc(C(F)(F)F)cc3)cncc2-c2cc(Cl)cc(Cl)c2)CC1 [Example 1, 1-{3-(3,5-dichlorophenyl)-5-[4-(trifluoromethyl)phenyl]-4-pyridinyl}-4-piperidineamine] | 10.51 | 94.6 | 19000 | 93 |  | 
11 | N[C@@H]1CCN(c2c(-c3ccc(C(F)(F)F)cc3)cncc2-c2cc(Cl)cc(Cl)c2)C[C@@H]1O [Example 6, (3S,4R)-4-amino-1-{3-(3,5-dichlorophenyl)-5-[4-(trifluoromethyl)phenyl]-4-pyridinyl}-3-piperidinol] | 10.57 | 89.9 |  | 89 |  | 
12 | Cc1cc(C)cc(-c2cnc3cc(Cl)c(-c4cnn(C)c4)cc3c2OCC[C@H]2CCCCN2)c1 [formula (M), reference compound] |  |  | 13000 |  |  | 
13 | CO[C@@H]1CN(c2c(-c3ccc(C(F)(F)F)cc3)cncc2-c2cc(Cl)cc(Cl)c2)CC[C@H]1N (racemic) [Example 2(6), rac-(3R,4R)-1-{3-(3,5-dichlorophenyl)-5-[4-(trifluoromethyl)phenyl]-4-pyridinyl}-3-methoxy-4-piperidineamine] | 9.33 |  |  |  |  | 
